{
  "source": "patent US9593197B2",
  "about": "“Trigger-responsive chain-shattering polymers” (THE BOARD OF TRUSTEES OF THE UNIVERSITY OF ILLINOIS, priority 2012, dated 2017)",
  "experiment": "MTT cytotoxicity assay before and after UV treatment",
  "conditions": "human, HeLa cells",
  "data": [
    {"smiles": "CC[C@@]1(O)C(=O)OCc2c1cc1n(c2=O)Cc2cc3cc(O)ccc3nc2-1", "note": "[HCPT, 10-hydroxycamptothecin]", "values": [
      {"measurement": "IC50", "result": "6.2 to 7.32", "unit": "µM"}
    ]}
  ]
}
